Patent US8435544B2, “Ophthalmic compositions comprising calcineurin inhibitors or mTOR inhibitors” (Lux Biosciences, Inc., priority 2007, dated 2013)

Assays:
[1] = Ocular distribution and pharmacokinetics of 14C-voclosporin in DB rabbits; format: in vivo, Dutch Belted (DB) rabbits
Method: (§1) NZW rabbits (30 females/8 males) were used in a single dose (SD) and 7-day repeat dose (RD) study (see Table 38). DB rabbits (16 females) were used in a single dose study (see Table 39). […] Blood and ocular tissue radioactivity levels were assessed at designated time points via combustion followed by liquid scintillation counting.
(§2) At each sampling point, a t-test was used to compare the tissue concentrations within or between the two strains of rabbits. SigmaStat® 3.5 (Systat, Inc., San Jose, Calif.) was used for the statistical analyses (p<0.05). […] Pharmacokinetic analysis was performed using WinNonlin 5.2 (Pharsight, Corporation, Mountain View, Calif.). Cmax and Tmax, and where calculable AUC and t1/2, were reported.

[2] = Ocular distribution and pharmacokinetics of 14C-voclosporin in NZW rabbits; format: in vivo, New Zealand White (NZW) rabbits; conditions: for AUC / Cmax: bilateral ocular; for Cmax: Blood
Method: as §1, §2

[3] = tested on: canine keratoconjunctivitis sicca (KCS); test: Topical voclosporin clinical study in dogs with KCS; format: in vivo
Description: The study covered assessment of tear production (as measured by the Schirmer Tear Test (STT)), the response of clinical observation of the cornea, and participating ophthalmologists' overall assessment of efficacy.
Dogs diagnosed with chronic (>3 months in duration) immune-mediated KCS were selected from the clinic populations of the North Carolina State Veterinary Teaching Hospital. Diagnosis of immune-mediated KCS was made by exclusion of other causes of KCS.
Physical and ophthalmic examinations were performed at 0, 7, 14, and 28 days.

[4] = topical mixed micellar composition

Question: For `C=CC=CCC(C)C(O)C1C(=O)NC(CC)C(=O)N(C)CC(=O)N(C)C(CC(C)C)C(=O)NC(C(C)C)C(=O)N(C)C(CC(C)C)C(=O)NC(C)C(=O)NC(C)C(=O)N(C)C(CC(C)C)C(=O)N(C)C(CC(C)C)C(=O)N(C)C(C(C)C)C(=O)N1C` (stereo not drawn) [^14C-voclosporin], which AUC ([1]; Aqueous Humor, single dose, bilateral ocular, female DB rabbits) is on record?
Answer: The AUC was 56 hr * ng eq./g.

Question: What about the Cmax ([1]; Blood, single dose, bilateral ocular, female DB rabbits) of the same molecule?
Answer: Its Cmax is “BQL (Below Quantifiable Limit (<0.1 ng/mL))”.

Question: And the AUC ([1]; Choroid/Retina, single dose, bilateral ocular, female DB rabbits)?
Answer: Its AUC is 92 hr * ng eq./g.

Question: What about the AUC ([1]; Cornea, single dose, bilateral ocular, female DB rabbits) of the same molecule?
Answer: Its AUC is 27844 hr * ng eq./g.

Question: What about the AUC ([1]; Iris/Ciliary Body, single dose, bilateral ocular, female DB rabbits) of the same molecule?
Answer: The AUC was 541 hr * ng eq./g.

Question: What about the AUC ([1]; Lacrimal Gland, single dose, bilateral ocular, female DB rabbits) of the same molecule?
Answer: Its AUC is 335 hr * ng eq./g.

Question: What about the AUC ([1]; Lens, single dose, bilateral ocular, female DB rabbits) of the same molecule?
Answer: The AUC was 26 hr * ng eq./g.

Question: What about the AUC ([1]; Lower Bulbar Conjunctiva, single dose, bilateral ocular, female DB rabbits) of the same molecule?
Answer: Its AUC is 13107 hr * ng eq./g.

Question: What about the AUC ([1]; Lower Eyelid, single dose, bilateral ocular, female DB rabbits) of the same molecule?
Answer: The AUC was 512473 hr * ng eq./g.

Question: What about the AUC ([1]; Nictitating Membrane, single dose, bilateral ocular, female DB rabbits) of the same molecule?
Answer: Its AUC is 13091 hr * ng eq./g.

Question: And the AUC ([1]; Optic Nerve, single dose, bilateral ocular, female DB rabbits)?
Answer: Its AUC is 1127 hr * ng eq./g.

Question: And the AUC ([1]; Sclera, single dose, bilateral ocular, female DB rabbits)?
Answer: The AUC was 3502 hr * ng eq./g.

Question: What about the AUC ([1]; Submandibular Lymph Node, single dose, bilateral ocular, female DB rabbits) of the same molecule?
Answer: Its AUC is 635 hr * ng eq./g.

Question: What about the AUC ([1]; Tear, single dose, bilateral ocular, female DB rabbits) of the same molecule?
Answer: Its AUC is 262299 hr * ng eq./g.

Question: And the AUC ([1]; Upper Bulbar Conjunctiva, single dose, bilateral ocular, female DB rabbits)?
Answer: Its AUC is 14296 hr * ng eq./g.

Question: What about the AUC ([1]; Upper Eyelid, single dose, bilateral ocular, female DB rabbits) of the same molecule?
Answer: Its AUC is 68063 hr * ng eq./g.

Question: And the AUC ([1]; Vitreous Humor, single dose, bilateral ocular, female DB rabbits)?
Answer: Its AUC is 16 hr * ng eq./g.

Question: And the “ocular tissue concentrations (e.g., Cmax) versus NZW rabbits (melanin binding)” value ([1]; single dose to DB rabbits)?
Answer: Its value is “not significantly different from NZW rabbits”.

Question: What about the “mortality, morbidity, clinical irritation” value ([2]; 35 μL of 0.2% 14C-voclosporin mixed micellar formulation, single or daily for 7 days, NZW and DB rabbits) of the same molecule?
Answer: Its value is “No mortality, morbidity or evidence of clinical irritation”.

Question: And the AUC ([2]; Aqueous Humor, repeat dose (RD, QD for 7 days), female NZW rabbits)?
Answer: The AUC was 96 hr * ng eq./g.

Question: And the AUC ([2]; Aqueous Humor, single dose (SD), female NZW rabbits)?
Answer: Its AUC is 45 hr * ng eq./g.

Question: And the Cmax ([2]; repeat dose (RD, QD for 7 days), female NZW rabbits)?
Answer: The Cmax was “BQL (Below Quantifiable Limit (<0.1 ng/mL))”.

Question: What about the Cmax ([2]; single dose (SD), female NZW rabbits) of the same molecule?
Answer: The Cmax was “BQL (Below Quantifiable Limit (<0.1 ng/mL))”.

Question: And the AUC ([2]; Choroid/Retina, repeat dose (RD, QD for 7 days), female NZW rabbits)?
Answer: Its AUC is 897 hr * ng eq./g.

Question: And the AUC ([2]; Choroid/Retina, single dose (SD), female NZW rabbits)?
Answer: The AUC was 472 hr * ng eq./g.

Question: And the AUC ([2]; Cornea, repeat dose (RD, QD for 7 days), female NZW rabbits)?
Answer: Its AUC is 54624 hr * ng eq./g.

Question: What about the AUC ([2]; Cornea, single dose (SD), female NZW rabbits) of the same molecule?
Answer: The AUC was 23166 hr * ng eq./g.

Question: And the AUC ([2]; Iris/Ciliary Body, repeat dose (RD, QD for 7 days), female NZW rabbits)?
Answer: The AUC was 1952 hr * ng eq./g.

Question: And the AUC ([2]; Iris/Ciliary Body, single dose (SD), female NZW rabbits)?
Answer: The AUC was 382 hr * ng eq./g.

Question: And the AUC ([2]; Lacrimal Gland, repeat dose (RD, QD for 7 days), female NZW rabbits)?
Answer: Its AUC is 1109 hr * ng eq./g.

Question: What about the AUC ([2]; Lacrimal Gland, single dose (SD), female NZW rabbits) of the same molecule?
Answer: The AUC was 416 hr * ng eq./g.

Question: And the AUC ([2]; Lens, repeat dose (RD, QD for 7 days), female NZW rabbits)?
Answer: The AUC was 356 hr * ng eq./g.

Question: What about the AUC ([2]; Lens, single dose (SD), female NZW rabbits) of the same molecule?
Answer: The AUC was 47 hr * ng eq./g.

Question: What about the AUC ([2]; Lower Bulbar Conjunctiva, repeat dose (RD, QD for 7 days), female NZW rabbits) of the same molecule?
Answer: Its AUC is 16585 hr * ng eq./g.

Question: And the AUC ([2]; Lower Bulbar Conjunctiva, single dose (SD), female NZW rabbits)?
Answer: The AUC was 12029 hr * ng eq./g.

Question: And the AUC ([2]; Lower Eyelid, repeat dose (RD, QD for 7 days), female NZW rabbits)?
Answer: Its AUC is 358791 hr * ng eq./g.

Question: And the AUC ([2]; Lower Eyelid, single dose (SD), female NZW rabbits)?
Answer: Its AUC is 207630 hr * ng eq./g.

Question: What about the AUC ([2]; Nictitating Membrane, repeat dose (RD, QD for 7 days), female NZW rabbits) of the same molecule?
Answer: Its AUC is 15964 hr * ng eq./g.

Question: What about the AUC ([2]; Nictitating Membrane, single dose (SD), female NZW rabbits) of the same molecule?
Answer: The AUC was 12135 hr * ng eq./g.

Question: And the AUC ([2]; Optic Nerve, repeat dose (RD, QD for 7 days), female NZW rabbits)?
Answer: Its AUC is 1805 hr * ng eq./g.

Question: What about the AUC ([2]; Optic Nerve, single dose (SD), female NZW rabbits) of the same molecule?
Answer: The AUC was 569 hr * ng eq./g.

Question: What about the AUC ([2]; Sclera, repeat dose (RD, QD for 7 days), female NZW rabbits) of the same molecule?
Answer: Its AUC is 3825 hr * ng eq./g.

Question: And the AUC ([2]; Sclera, single dose (SD), female NZW rabbits)?
Answer: Its AUC is 2646 hr * ng eq./g.

Question: What about the AUC ([2]; Submandibular Lymph Node, repeat dose (RD, QD for 7 days), female NZW rabbits) of the same molecule?
Answer: The AUC was 1190 hr * ng eq./g.

Question: What about the AUC ([2]; Submandibular Lymph Node, single dose (SD), female NZW rabbits) of the same molecule?
Answer: Its AUC is 893 hr * ng eq./g.

Question: What about the AUC ([2]; Tear, repeat dose (RD, QD for 7 days), female NZW rabbits) of the same molecule?
Answer: Its AUC is 230878 hr * ng eq./g.

Question: And the AUC ([2]; Tear, single dose (SD), female NZW rabbits)?
Answer: The AUC was 168259 hr * ng eq./g.

Question: What about the AUC ([2]; Upper Bulbar Conjunctiva, repeat dose (RD, QD for 7 days), female NZW rabbits) of the same molecule?
Answer: The AUC was 19944 hr * ng eq./g.

Question: And the AUC ([2]; Upper Bulbar Conjunctiva, single dose (SD), female NZW rabbits)?
Answer: Its AUC is 14782 hr * ng eq./g.

Question: And the AUC ([2]; Upper Eyelid, repeat dose (RD, QD for 7 days), female NZW rabbits)?
Answer: Its AUC is 98656 hr * ng eq./g.

Question: And the AUC ([2]; Upper Eyelid, single dose (SD), female NZW rabbits)?
Answer: The AUC was 114651 hr * ng eq./g.

Question: And the AUC ([2]; Vitreous Humor, repeat dose (RD, QD for 7 days), female NZW rabbits)?
Answer: The AUC was 23 hr * ng eq./g.

Question: What about the AUC ([2]; Vitreous Humor, single dose (SD), female NZW rabbits) of the same molecule?
Answer: The AUC was 27 hr * ng eq./g.

Question: And the “concentrations in remaining ocular tissues” value ([2]; after a single dose)?
Answer: Its value is 20-223 ng eq/g tissue.

Question: And the “lowest concentrations of radioactivity in ocular tissues” value ([2]; after a single dose, aqueous and vitreous humor, and the lens)?
Answer: The value was 1-11 ng eq/g tissue.

Question: What about the “highest concentrations of radioactivity in ocular tissues” value ([2]; after a single dose, eyelids, conjunctiva, cornea, nictitating membrane and tears) of the same molecule?
Answer: Its value is greater than 1 mg eq/g tissue.

Question: What about the Blood levels ([2]; after ocular application) of the same molecule?
Answer: Its Blood levels is “at the lower limit of quantification (LLOQ)”.

Question: What about the “concentrations of radioactivity in all ocular tissues except lens, aqueous humor, vitreous humor” value ([2]; after single and repeat ocular applications) of the same molecule?
Answer: The value was no less than 10 ng eq/g tissue.

Question: What about the blood radioactivity ([2]; all but one blood sample below LLOQ) of the same molecule?
Answer: The blood radioactivity was less than 3.06 ng eq/mL.

Question: What about the “concentrations in target tissues (conjunctiva, cornea, lacrimal gland) at 24 hours” value ([2]; once daily ocular applications for 7 days) of the same molecule?
Answer: Its value is “remained at therapeutic levels even at the 24-hour mark”.

Question: What about the “change in t1/2 on repeat dosing” value ([2]; repeat dosing up to 7 days, lower bulbar conjunctiva, nictitating membrane, upper bulbar conjunctiva) of the same molecule?
Answer: Its value is “no apparent change”.

Question: What about the “levels in all ocular tissues except aqueous/vitreous humor and lens” value ([2]; single dose administration) of the same molecule?
Answer: The value was “higher than 10 ng equivalent drug/gram tissue”.

Question: And the “distribution to the contralateral, non-treated eye” value ([2]; unilateral dosing)?
Answer: Its value is “minimal distribution”.

Question: Which results are given for `C=C/C=C/C[C@@H](C)[C@@H](O)[C@H]1C(=O)N[C@@H](CC)C(=O)N(C)CC(=O)N(C)[C@@H](CC(C)C)C(=O)N[C@@H](C(C)C)C(=O)N(C)[C@@H](CC(C)C)C(=O)N[C@@H](C)C(=O)N[C@H](C)C(=O)N(C)[C@@H](CC(C)C)C(=O)N(C)[C@@H](CC(C)C)C(=O)N(C)[C@@H](C(C)C)C(=O)N1C` [voclosporin, reference compound]?
Answer: adverse effects ([3]; 30 days treatment period, 0.2 wt % voclosporin topically every 12 hours): No adverse effects were noted; maintenance of STT ([3]; dogs with KCS, 30 days): maintained the STT in these dogs for 30 days; tissue accumulation ([2]; after multiple dosing): minimal tissue accumulation; tissue levels at 24 hours ([2]; single (1 day) topical dose, female NZW rabbits): Therapeutic levels of voclosporin were noticed even at the 24-hour mark; level in the choriod/retina [2, 4]: high levels; level in the vitreous humor [2, 4]: low levels
